Data from US8334135B2, “Stem cells from adipose tissue, and differentiated cells from said cells” (Yves Saint Laurent Parfums, priority 2002, dated 2012).
“Also recorded” adds a separate entry of the source.

Legend:
[1] = test system: stem cells of the invention; test: Effect of Leukemia Inhibitory Factor on morphology and proliferation of the stem cells; assay type: cell-based, human; details: LIF 10 ng/ml
Protocol: For this enrichment step, different culture media were tested.

[2] = test system: adipocytes obtained from Primo 2CA T32 cells; test: Lipolysis test (glycerol liberated by adipocytes in the presence of adrenergic receptor agonists); assay type: cell-based, human; details: adipocytes from Primo 2CA T32 cells (about 140 population doublings); control 5.76
Protocol: Lipolyses were carried out on adipocytes obtained from Primo 2CA T32 cells (about 140 population doublings), with agonists specific for different β-adrenergic receptors.
This test consists of measuring the radiolabelled glycerol liberated by adipocytes in the presence of adrenergic receptor agonists. The method used is that described by Bradley D C and Kaslow H R (Anal Biochem, 1989, 180, 11-16). The glycerol liberated is phosphorylated in the presence of glycerokinase and ATP and ATP labeled with ^32P in the […]. The residual ATP is then hydrolyzed in an acid medium at 90° C. and precipitated with ammonium molybdate and triethylamine. The radioactivity incorporated in the form of glycerophosphate labelled with ^32P is estimated by counting in a β counter and the values are expressed in pmol using a calibration curve.
Lipolyses were carried out on Primo 2CA T32 cells with specific agonists for the different β adrenergic receptors, namely: • Isoproterenol: β1, β2 adrenergic • Dobutamine: β1 adrenergic • Terbutaline: β2 adrenergic • CL316243 β3 adrenergic: […]

[3] = test system: Primo 2CA cells; test: Glycerophosphate dehydrogenase (GPDH) activity during adipocyte differentiation of Primo 2CA cells; assay type: cell-based; details: Primo 2CA cells T24 in the presence of human bFGF
Protocol: (§1) The confluent cells are incubated in a DMEM/Ham's F12 (vol/vol, 1:1) medium supplemented with 100 U/ml of penicillin, 100 μg/ml of streptomycin, 5 μg/ml of human insulin (Sigma), 10 μg/ml of human transferrin (Sigma), 1 μM of PPAR activator (for example BRL49653), 100 to 250 μM of isobutyl-methylxanthine (IBMX) and 1 μM of dexamethasone. 48 to 72 hours later, this medium is replaced by the medium described above but containing no IBMX and dexamethasone. This differentiation medium is replaced every 2-3 days for a period of 15 to 20 days corresponding to an optimum adipocyte differentiation. Firstly, the cells which are to have the GPDH activity measure, are lysed. […] The reading is made with a spectrophotometer, allowing kinetic measurements to be carried out (KONTRON Uvicon 860 thermostatted at 37° C.).

[4] = test system: Primo 2CS cells; test: Glycerophosphate dehydrogenase (GPDH) activity during adipocyte differentiation of Primo 2CS cells; assay type: cell-based; details: Primo 2CS cells T22 in the presence of human bFGF; after 13 days of differentiation (3 experiments); control 22
Protocol: as §1

[5] = test system: CA population; test: Effect of bFGF on proliferation of the quiescent CA population; assay type: cell-based, human
Protocol: The addition of growth factors such as bFGF incorporated, for example, at a concentration of about 3 to 20 ng/ml of medium, in particular 5 to 10 ng/ml, not only halves the population doubling time (for example the population doubling time without bFGF is about 72 hours, while it is about 36 hours with bFGF), but also allows the population to reach confluence. Without growth factors, proliferation of a quiescent population of stem cells of the invention can be provoked by trypsination and dilution, but proliferation will spontaneously stop at about 70% confluence. Since confluence is indispensable in vitro for initiating the differentiation of many cell types, the use of growth factors such as bFGF must be envisaged for in vitro production of this type of differentiated cell.
These observations confirm the quiescent state of the CA population and the state of senescence in the CS population.
After establishing a population of quiescent CA cells, human bFGF (basic Fibroblast Growth Factor) is added to the culture medium described above in a concentration of 5 ng/ml of medium.

[6] = test system: CS population; test: Effect of bFGF on proliferation of the CS population at late stages; assay type: cell-based, human; details: bFGF 5 ng/ml, after 50 population doublings

LIF: Leukemia Inhibitory Factor
effect on morphology or proliferation of the cells [1]: no change in the morphology or proliferation; also recorded: no changes in morphology or proliferation

C[C@H](Cc1ccc2c(c1)OC(C(=O)[O-])(C(=O)[O-])O2)NC[C@H](O)c1cccc(Cl)c1.[Na+].[Na+] [CL316243]
lipolysis rate [2]: 17.1 nmol/h/mg of protein

CC(CCc1ccc(O)cc1)NCCc1ccc(O)c(O)c1 (stereo not shown) [Dobutamine]
lipolysis rate [2]: 60.1 nmol/h/mg of protein

CN(CCOc1ccc(CC2SC(=O)NC2=O)cc1)c1ccccn1 (stereo not shown) [BRL49653]
GPDH activity ([3]; after 11 days of differentiation (2 experiments), control 77): 290 nmol/min/mg of protein | GPDH activity ([3]; after 16 days of differentiation (3 experiments), control 20): 390 nmol/min/mg of protein | GPDH activity [4]: 30 nmol/min/mg of protein

CC(C)(C)NCC(O)c1cc(O)cc(O)c1 (stereo not shown) [Terbutaline]
lipolysis rate [2]: 93.78 nmol/h/mg of protein

bFGF: human basic Fibroblast Growth Factor
effect on proliferation of CA population ([5]; bFGF 5 ng/ml, late stages, after 50 population doublings): effectively respond | population doubling time ([5]; with bFGF (about 3 to 20 ng/ml), about 72 hours without bFGF): about 36 hours | effect on proliferation of CS population [6]: no significant effect; also recorded: practically no effect
